Results reported in article PMC5218480 (PLoS ONE, 2017).

Tested on: MV-4-11 cells
Test: Gene expression microarray analysis (Affymetrix PrimeView) and GSEA
Format: cell-based, human
Design: RFU PODN (11730768_x_at) / Fold change /veh PODN (11730768_x_at) / RFU LINC00158 (11744669_a_at) / Fold change /veh LINC00158 (11744669_a_at) / RFU DUSP10 (11751237_a_at) / Fold change /veh DUSP10 (11751237_a_at) / RFU ID3 (11757404_x_at) / Fold change /veh ID3 (11757404_x_at) / RFU PLEKHG5 (11737974_s_at) / Fold change /veh PLEKHG5 (11737974_s_at) / RFU LRRC4B (11730491_at) / Fold change /veh LRRC4B (11730491_at) / RFU GIMAP4 (11747438_a_at) / Fold change /veh GIMAP4 (11747438_a_at) / RFU KRT8 (11758183_x_at) / Fold change /veh KRT8 (11758183_x_at) / RFU CNN1 (11734310_a_at) / Fold change /veh CNN1 (11734310_a_at) / RFU VPS37D (11726825_at) / Fold change /veh VPS37D (11726825_at) / RFU C10orf10 (11716522_x_at) / Fold change /veh C10orf10 (11716522_x_at) / RFU KIR2DL2 /// KIR2DL4 /// KIR2DL5A /// KIR2DL5B /// KIR2DS1 /// KIR2DS2 /// KIR2DS3 /// KIR2DS4 /// KIR3DL3 /// KIR3DL3 /// KIR3DS1 (11738374_at) / Fold change /veh KIR2DL2 /// KIR2DL4 /// KIR2DL5A /// KIR2DL5B /// KIR2DS1 /// KIR2DS2 /// KIR2DS3 /// KIR2DS4 /// KIR3DL3 /// KIR3DL3 /// KIR3DS1 (11738374_at) / RFU C1QL1 (11718748_at) / Fold change /veh C1QL1 (11718748_at) / RFU TMPRSS4 (11747572_a_at) / Fold change /veh TMPRSS4 (11747572_a_at) / RFU HAMP (11756126_x_at) / Fold change /veh HAMP (11756126_x_at) / RFU RNFT2 (11725882_a_at) / Fold change /veh RNFT2 (11725882_a_at) / RFU NR4A2 (11747474_a_at) / Fold change /veh NR4A2 (11747474_a_at) / RFU ABCC12 (11746883_a_at) / Fold change /veh ABCC12 (11746883_a_at) / RFU TMEM136 (11760407_x_at) / Fold change /veh TMEM136 (11760407_x_at) / RFU CLDN22 /// WWC2 (11732394_at) / Fold change /veh CLDN22 /// WWC2 (11732394_at) / RFU HLA-DPB1 (11760878_x_at) / Fold change /veh HLA-DPB1 (11760878_x_at) / RFU SPINT1 (11716480_a_at) / Fold change /veh SPINT1 (11716480_a_at) / RFU GAP43 (11754022_s_at) / Fold change /veh GAP43 (11754022_s_at) / RFU A4GNT (11735810_at) / Fold change /veh A4GNT (11735810_at) / RFU PRB3 (11715151_x_at) / Fold change /veh PRB3 (11715151_x_at) / RFU TUBB4B (11761932_at) / Fold change /veh TUBB4B (11761932_at) / RFU CAPN14 (11732068_a_at) / Fold change /veh CAPN14 (11732068_a_at) / RFU TMCC2 (11721928_a_at) / Fold change /veh TMCC2 (11721928_a_at) / RFU IRGQ (11745062_a_at) / Fold change /veh IRGQ (11745062_a_at) / RFU FAM174B (11720279_a_at) / Fold change /veh FAM174B (11720279_a_at) / RFU TMPRSS4 (11748680_a_at) / Fold change /veh TMPRSS4 (11748680_a_at) / RFU FAM212B (11763350_a_at) / Fold change /veh FAM212B (11763350_a_at) / RFU PLEKHG5 (11743358_a_at) / Fold change /veh PLEKHG5 (11743358_a_at) / RFU ZSCAN30 (11745921_a_at) / Fold change /veh ZSCAN30 (11745921_a_at) / RFU CMKLR1 (11741424_a_at) / Fold change /veh CMKLR1 (11741424_a_at) / RFU LOC101060620 /// MAPK8IP1 (11723275_at) / Fold change /veh LOC101060620 /// MAPK8IP1 (11723275_at) / RFU SPTSSB (11747773_x_at) / Fold change /veh SPTSSB (11747773_x_at) / RFU PRSS12 (11739890_at) / Fold change /veh PRSS12 (11739890_at) / RFU BIN1 (11741810_x_at) / Fold change /veh BIN1 (11741810_x_at) / RFU WNT11 (11732464_a_at) / Fold change /veh WNT11 (11732464_a_at) / RFU C10orf10 (11716521_a_at) / Fold change /veh C10orf10 (11716521_a_at) / RFU C5orf56 (11738089_at) / Fold change /veh C5orf56 (11738089_at) / RFU CYB561 (11721691_x_at) / Fold change /veh CYB561 (11721691_x_at) / RFU ANKRD19P (11752326_a_at) / Fold change /veh ANKRD19P (11752326_a_at) / RFU OR2T12 /// OR2T33 /// OR2T8 (11738714_s_at) / Fold change /veh OR2T12 /// OR2T33 /// OR2T8 (11738714_s_at) / RFU VCAN (11748164_a_at) / Fold change /veh VCAN (11748164_a_at) / RFU JSRP1 (11732532_at) / Fold change /veh JSRP1 (11732532_at) / RFU KRTAP10-11 (11738290_x_at) / Fold change /veh KRTAP10-11 (11738290_x_at) / RFU MYO3A (11730013_a_at) / Fold change /veh MYO3A (11730013_a_at) / RFU EBF3 (11725865_a_at) / Fold change /veh EBF3 (11725865_a_at) / RFU CAMK2N1 (11719241_x_at) / Fold change /veh CAMK2N1 (11719241_x_at) / RFU C5orf56 (11738088_a_at) / Fold change /veh C5orf56 (11738088_a_at) / RFU OLFML3 (11715873_a_at) / Fold change /veh OLFML3 (11715873_a_at) / RFU LOC100653217 /// NTM (11731650_a_at) / Fold change /veh LOC100653217 /// NTM (11731650_a_at) / RFU MAPK11 (11762145_a_at) / Fold change /veh MAPK11 (11762145_a_at) / RFU FIZ1 (11724087_x_at) / Fold change /veh FIZ1 (11724087_x_at) / RFU OASL (11726364_x_at) / Fold change /veh OASL (11726364_x_at) / RFU SOX15 (11748057_x_at) / Fold change /veh SOX15 (11748057_x_at) / RFU CD79A (11719716_a_at) / Fold change /veh CD79A (11719716_a_at) / RFU HIST1H1D (11736915_at) / Fold change /veh HIST1H1D (11736915_at) / RFU CASKIN2 (11723855_a_at) / Fold change /veh CASKIN2 (11723855_a_at) / RFU LOC730098 (11760151_x_at) / Fold change /veh LOC730098 (11760151_x_at) / RFU OR4N2 (11742367_at) / Fold change /veh OR4N2 (11742367_at) / RFU PRRT2 (11749266_a_at) / Fold change /veh PRRT2 (11749266_a_at) / RFU SNX32 (11753110_a_at) / Fold change /veh SNX32 (11753110_a_at) / RFU CDHR5 (11726645_a_at) / Fold change /veh CDHR5 (11726645_a_at) / RFU RCAN1 (11760418_a_at) / Fold change /veh RCAN1 (11760418_a_at) / RFU FAM167A (11723789_a_at) / Fold change /veh FAM167A (11723789_a_at) / RFU FAM26E (11764081_at) / Fold change /veh FAM26E (11764081_at) / RFU ISYNA1 (11749810_s_at) / Fold change /veh ISYNA1 (11749810_s_at) / RFU ACY1 (11761880_at) / Fold change /veh ACY1 (11761880_at) / RFU 11764098_at / Fold change /veh 11764098_at / RFU SAMD14 (11745864_x_at) / Fold change /veh SAMD14 (11745864_x_at) / RFU NPB (11741838_a_at) / Fold change /veh NPB (11741838_a_at) / RFU TMPRSS6 (11731388_a_at) / Fold change /veh TMPRSS6 (11731388_a_at) / RFU KRTAP10-2 (11738614_at) / Fold change /veh KRTAP10-2 (11738614_at) / RFU ARHGAP8 /// PRR5-ARHGAP8 (11727945_x_at) / Fold change /veh ARHGAP8 /// PRR5-ARHGAP8 (11727945_x_at) / RFU KRTAP5-7 /// NADSYN1 (11734609_at) / Fold change /veh KRTAP5-7 /// NADSYN1 (11734609_at) / RFU RASL12 (11751679_a_at) / Fold change /veh RASL12 (11751679_a_at) / RFU CDKN2B (11736163_a_at) / Fold change /veh CDKN2B (11736163_a_at) / RFU PRF1 (11729649_at) / Fold change /veh PRF1 (11729649_at) / RFU, ZNF638 /// ZNF638-IT1 / Fold change vs veh, ZNF638 /// ZNF638-IT1 / RFU, PANK3 / Fold change vs veh, PANK3 / RFU, SH3YL1 / Fold change vs veh, SH3YL1 / RFU, ZEB2 / Fold change vs veh, ZEB2 / RFU, NRIP1 / Fold change vs veh, NRIP1 / RFU, PTTG1IP / Fold change vs veh, PTTG1IP / RFU, CAPN2 / Fold change vs veh, CAPN2 / RFU, MED14 / Fold change vs veh, MED14 / RFU, SNORA58 / Fold change vs veh, SNORA58 / RFU, C1orf63 / Fold change vs veh, C1orf63 / RFU, LRRFIP1 / Fold change vs veh, LRRFIP1 / RFU, NDUFAF7 / Fold change vs veh, NDUFAF7 / RFU, SLC12A2 / Fold change vs veh, SLC12A2 / RFU, IBTK / Fold change vs veh, IBTK / RFU, ESF1 / Fold change vs veh, ESF1 / Fold change vs veh, TMEM50B / RFU, TAOK1 / Fold change vs veh, TAOK1 / RFU, ACBD3 / Fold change vs veh, ACBD3 / RFU, TMA16 / Fold change vs veh, TMA16 / RFU, RWDD3 / Fold change vs veh, RWDD3 / RFU, BCAT1 / Fold change vs veh, BCAT1 / RFU, EDEM3 / Fold change vs veh, EDEM3 / RFU, TMEM33 / Fold change vs veh, TMEM33 / RFU, WDR75 / Fold change vs veh, WDR75 / RFU, AHCTF1 / Fold change vs veh, AHCTF1 / RFU, TFRC / Fold change vs veh, TFRC / RFU, ZDHHC17 / Fold change vs veh, ZDHHC17 / RFU, NOM1 / Fold change vs veh, NOM1 / RFU, ARL8B / Fold change vs veh, ARL8B / RFU, ZBTB11 / Fold change vs veh, ZBTB11 / RFU, TAMM41 / Fold change vs veh, TAMM41 / RFU, KIAA1704 /// LOC100996395 / Fold change vs veh, KIAA1704 /// LOC100996395 / RFU, ING1 / Fold change vs veh, ING1 / RFU, TRMT61B / Fold change vs veh, TRMT61B / RFU, FUBP3 / Fold change vs veh, FUBP3 / RFU, TP53 / Fold change vs veh, TP53 / RFU, TNKS2 / Fold change vs veh, TNKS2 / RFU, ZFP14 / Fold change vs veh, ZFP14 / RFU, ACTR2 / Fold change vs veh, ACTR2 / RFU, PPP3R1 / Fold change vs veh, PPP3R1 / RFU, PIK3R1 / Fold change vs veh, PIK3R1 / RFU, HNRNPA1 / Fold change vs veh, HNRNPA1 / RFU, RNF170 / Fold change vs veh, RNF170 / RFU, ZNF28 / Fold change vs veh, ZNF28 / RFU, RNGTT / Fold change vs veh, RNGTT / RFU, OGT / Fold change vs veh, OGT / RFU, BRD1 / Fold change vs veh, BRD1 / RFU, MARS / Fold change vs veh, MARS / RFU, ZNF655 / Fold change vs veh, ZNF655 / RFU, FAHD1 / Fold change vs veh, FAHD1 / RFU, BDP1 / Fold change vs veh, BDP1 / RFU, LRRCC1 / Fold change vs veh, LRRCC1 / RFU, ARID1A / Fold change vs veh, ARID1A / RFU, ZNF146 / Fold change vs veh, ZNF146 / RFU, ZNF330 / Fold change vs veh, ZNF330 / RFU, GPN3 / Fold change vs veh, GPN3 / RFU, C9orf123 / Fold change vs veh, C9orf123 / RFU, N4BP2L2 / Fold change vs veh, N4BP2L2 / RFU, ARFIP1 / Fold change vs veh, ARFIP1 / RFU, FAM179B / Fold change vs veh, FAM179B / RFU, BCL10 / Fold change vs veh, BCL10 / RFU, UHRF1BP1L / Fold change vs veh, UHRF1BP1L / RFU, BET1 / Fold change vs veh, BET1 / RFU, CNOT2 / Fold change vs veh, CNOT2 / RFU, ZNF268 / Fold change vs veh, ZNF268 / Fold change vs veh, ZNF507 / RFU, DGCR2 / Fold change vs veh, DGCR2 / RFU, WDSUB1 / Fold change vs veh, WDSUB1 / Fold change vs veh, HSP90B1 /// MIR3652 / RFU, ADSS / Fold change vs veh, ADSS / RFU, GK / Fold change vs veh, GK / RFU, ZNF148 / Fold change vs veh, ZNF148 / RFU, TAF9 / Fold change vs veh, TAF9 / RFU, SLC1A5 / Fold change vs veh, SLC1A5 / RFU, SLMO2 / Fold change vs veh, SLMO2 / RFU, ABCC4 / Fold change vs veh, ABCC4 / RFU, LOC101060439 /// RAP1B / Fold change vs veh, LOC101060439 /// RAP1B / RFU, RFX7 / Fold change vs veh, RFX7 / RFU, GTPBP10 / Fold change vs veh, GTPBP10 / RFU, CNEP1R1 / Fold change vs veh, CNEP1R1 / RFU, BIVM-ERCC5 /// ERCC5 / Fold change vs veh, BIVM-ERCC5 /// ERCC5 / RFU, ILF3 / Fold change vs veh, ILF3 / RFU 11762660_at / Fold change /veh 11762660_at / RFU VCAN (11757783_s_at) / Fold change /veh VCAN (11757783_s_at) / RFU DDX43 (11728927_at) / Fold change /veh DDX43 (11728927_at) / RFU KRT8 (11758188_x_at) / Fold change /veh KRT8 (11758188_x_at) / RFU NKD1 (11759106_at) / Fold change /veh NKD1 (11759106_at) / RFU SRD5A1 (11742802_a_at) / Fold change /veh SRD5A1 (11742802_a_at) / RFU TPSAB1 /// TPSB2 (11721975_s_at) / Fold change /veh TPSAB1 /// TPSB2 (11721975_s_at) / RFU GSTM3 (11746129_a_at) / Fold change /veh GSTM3 (11746129_a_at) / RFU IL23R (11737362_x_at) / Fold change /veh IL23R (11737362_x_at) / RFU TMEM51 (11727254_a_at) / Fold change /veh TMEM51 (11727254_a_at) / RFU PIWIL2 (11732686_x_at) / Fold change /veh PIWIL2 (11732686_x_at) / RFU ORM1 (11744905_x_at) / Fold change /veh ORM1 (11744905_x_at) / RFU CCDC152 (11743942_at) / Fold change /veh CCDC152 (11743942_at) / RFU ECM1 (11717891_a_at) / Fold change /veh ECM1 (11717891_a_at) / RFU IL23R (11748794_a_at) / Fold change /veh IL23R (11748794_a_at) / RFU TNFAIP8L3 (11732012_x_at) / Fold change /veh TNFAIP8L3 (11732012_x_at) / RFU MBOAT4 (11741988_at) / Fold change /veh MBOAT4 (11741988_at) / RFU 11764193_at / Fold change /veh 11764193_at / RFU TMEM53 (11763286_at) / Fold change /veh TMEM53 (11763286_at) / RFU MAGEB2 (11727129_at) / Fold change /veh MAGEB2 (11727129_at) / RFU TMEM200A (11744735_a_at) / Fold change /veh TMEM200A (11744735_a_at) / RFU CCDC152 (11751479_a_at) / Fold change /veh CCDC152 (11751479_a_at) / RFU FAM211A (11726209_a_at) / Fold change /veh FAM211A (11726209_a_at) / RFU RGS16 (11746705_a_at) / Fold change /veh RGS16 (11746705_a_at) / RFU VCAN (11755009_s_at) / Fold change /veh VCAN (11755009_s_at) / RFU RHOB (11743442_s_at) / Fold change /veh RHOB (11743442_s_at) / RFU RGS16 (11720943_a_at) / Fold change /veh RGS16 (11720943_a_at) / RFU RGS16 (11720944_at) / Fold change /veh RGS16 (11720944_at) / RFU, VPS4B / Fold change vs veh, VPS4B / RFU, CREB1 / Fold change vs veh, CREB1 / RFU, DNAJC13 / Fold change vs veh, DNAJC13 / RFU, GNAQ / Fold change vs veh, GNAQ / RFU, CDK5R1 / Fold change vs veh, CDK5R1 / RFU, ZRANB3 / Fold change vs veh, ZRANB3 / RFU, CUL4A / Fold change vs veh, CUL4A / RFU, CCNY / Fold change vs veh, CCNY / RFU, UFL1 / Fold change vs veh, UFL1 / RFU, COG3 / Fold change vs veh, COG3 / RFU, DIAPH2 / Fold change vs veh, DIAPH2 / RFU, SKA2 / Fold change vs veh, SKA2 / RFU, AFF3 / Fold change vs veh, AFF3 / RFU, LMF1 / Fold change vs veh, LMF1 / RFU, IPO11 / Fold change vs veh, IPO11 / RFU, DFFB / Fold change vs veh, DFFB / RFU, FOXP1 / Fold change vs veh, FOXP1 / RFU, CARD8 / Fold change vs veh, CARD8 / RFU, STRN3 / Fold change vs veh, STRN3 / RFU, ADK / Fold change vs veh, ADK / RFU, RASSF2 / Fold change vs veh, RASSF2 / RFU, WIPF1 / Fold change vs veh, WIPF1 / RFU, LARP1B / Fold change vs veh, LARP1B / RFU, RASA1 / Fold change vs veh, RASA1 / RFU, RB1 / Fold change vs veh, RB1 / RFU, PPFIA1 / Fold change vs veh, PPFIA1 / RFU, MAT2A / Fold change vs veh, MAT2A / RFU, CCT5 / Fold change vs veh, CCT5 / RFU, WDR92 / Fold change vs veh, WDR92 / RFU, CUX1 / Fold change vs veh, CUX1 / RFU, TTC7A / Fold change vs veh, TTC7A / RFU, TMEM135 / Fold change vs veh, TMEM135 / RFU, DEPTOR / Fold change vs veh, DEPTOR / RFU, CPM / Fold change vs veh, CPM / RFU, DNAJB6 / Fold change vs veh, DNAJB6 / RFU, CACNA2D3 / Fold change vs veh, CACNA2D3 / RFU, DTX4 / Fold change vs veh, DTX4 / RFU, TFCP2 / Fold change vs veh, TFCP2 / RFU, GMCL1 /// GMCL1P1 / Fold change vs veh, GMCL1 /// GMCL1P1 / RFU, AEBP2 / Fold change vs veh, AEBP2 / RFU, SNHG1 /// SNORD22 /// SNORD25 /// SNORD26 /// SNORD27 /// SNORD28 /// SNORD29 /// SNORD31 / Fold change vs veh, SNHG1 /// SNORD22 /// SNORD25 /// SNORD26 /// SNORD27 /// SNORD28 /// SNORD29 /// SNORD31 / Fold change (Aza/veh), C12orf56 (ProbeSet 11735607_a_at) / Fold change (ACY-1035/veh), C12orf56 (ProbeSet 11735607_a_at) / Fold change (Aza/veh), FGFR1OP (ProbeSet 11751329_s_at) / Fold change (ACY-1035/veh), FGFR1OP (ProbeSet 11751329_s_at) / Fold change (Aza/veh), VPS36 (ProbeSet 11739960_a_at) / Fold change (ACY-1035/veh), VPS36 (ProbeSet 11739960_a_at) / RFU SYPL1 (11715823_x_at) / Fold change /veh SYPL1 (11715823_x_at) / RFU IGFBP7 (11715501_s_at) / Fold change /veh IGFBP7 (11715501_s_at) / RFU REEP3 (11722064_at) / Fold change /veh REEP3 (11722064_at) / RFU IGLL1 (11728026_x_at) / Fold change /veh IGLL1 (11728026_x_at): dose or concentration left out as unconfirmed
Settings: ProbeSet 11732370_a_at; LIST D

Compound: Nc1ccc(-c2cccs2)cc1NC(=O)c1ccc2c(c1)cc(C1CC1)n2CCN1CCOCC1 [ACY-1035]
- RFU, CUX1: 235.11 RFU
